In patent US20240139026A1, “Ophthalmic Lenses And Methods For Correcting, Slowing, Reducing, And/Or Controlling The Progression Of Myopia In Conjunction With Use Of Atropine Or Related Compounds” (Brien Holden Vision Institute Limited, priority 2020, published 2024):

Experiments:
[1] = system: amplitude of accommodation; conditions: concentrations greater than 0.1% Atropine; children aged 6-12 years; cited from earlier work
[2] = system: myopic eye of an individual; assay: Spherical aberration of combined spectacle lens and eye system with Atropine-enlarged pupil; assay type: in vivo; conditions: -2.00 D myope; pupillary diameter increase from about 3 mm to about 6 mm with use of Atropine
Source text: FIG. 1A illustrates a schematic plot of pupil diameters resulting from use of Atropine, a widely used muscarinic receptor antagonist and a pharmaceutical agent for myopia therapy. […] Considering FIG. 1A, it is observed that use of 0.01% Atropine which to date is the lowest concentration used for treatment of myopia in individuals, increases the photopic pupillary diameter by approximately 1 mm. Increasing the concentration to anywhere from 0.025% to 0.1% Atropine, increases the photopic pupil size from about 2 mm to about 3 mm. With the highest concentration of 0.5% Atropine, the increase in photopic pupil size was largest and at about 3 mm. An increase in pupil size increases aberrations of the eye. […] FIG. 1B illustrates the increase in higher order aberrations from 3rd to 6th order as determined by aberrometry for the myopic eye of an individual who has a distance refractive error of approximately −2.00 D. It is observed that there is a significant increase in aberrations with a larger pupil. An increase in the pupil size may result in a functional decrement in visual performance and one or more unwanted effects such as poorer visual performance, reduced contrast, blurred vision, increased glare and increased photophobia (sensitivity to light). […]

myopia progression = conditions: cited from earlier work

For CN1[C@@H]2CC[C@H]1C[C@@H](OC(=O)C(CO)c1ccccc1)C2 (stereo partly shown) [Atropine], which “reduction of amplitude of accommodation” value [1] is on record?
The value was “reduce the amplitude of accommodation by more than half”.

And the “effective increase of the spherical aberration of the combined spectacle lens and eye system” value [2]?
The value was “about +0.50 D”.

What about the “concentration dependence of efficacy” value (myopia progression; Atropine eye drops 0.01% to 1.0%) of the same compound?
The value was “the higher the concentration, the greater the efficacy”.

And the “efficacy in slowing myopia progression” value (myopia progression; used topically)?
Its value is “demonstrated a level of efficacy in slowing myopia progression”.
